Data reported in patent US12252480B2, “Salt forms and polymorphs of (R)-1-(4-(6-(2-(4-(3,3-difluorocyclobutoxy)-6-methylpyridin-2-yl)acetamido) pyridazin-3-yl)-2-fluorobutyl)-n-methyl-1H-1,2,3-triazole-4-carboxamide” (Board of Regents, The University of Texas System, priority 2015, dated 2025).

Tests used:
[1] = test system: A549 cells; assay: Proliferation Assay (A549, Cell Titer Fluor); assay type: cell-based; details: Homo sapiens, 72 hours incubation, read-out: EC50 against A549 cell proliferation
Procedure: Proliferation Assay. A549 cells were routinely maintained in RPMI 1640 media (Gibco catalog number 11875-093) supplemented with 10% dialyzed fetal bovine serum using a humidified incubator (37° C., 5% CO2 and ambient O2). In preparation for the viability assay, cells were inoculated into 384-well black CulturPlates (Perkin Elmer) at a density of 1000 cells/well in a volume of 40 uL. Following a 24-hour incubation at 37° C., 5% CO2 and ambient O2, cells were treated with compound (10 uL) in a final DMSO concentration of 0.5% (v/v). The microplates were then incubated for 72 hours (37° C., 5% CO2 and ambient O2). Cell Titer Fluor (Promega) was subsequently added (10 uL of 6× reagent) and mixed for 15 minutes at room temperature. The plates were then incubated for 30 minutes (37° C., 5% CO2 and ambient O2) and fluorescence was subsequently read on the Perkin Elmer Envision plate reader. IC50 values were calculated using a four-parameter logistic curve fit.

[2] = Dynamic Vapor Sorption (DVS); assay type: physicochemical
Procedure: Dynamic Vapor Sorption (DVS) was examined with an SMS Advantage instrument. About 10 mg of sample was transferred into the instrument, and the weight change with respect to the atmospheric humidity at 25° C. was recorded accordingly, with the following parameters: Equilibrium: dm/dt: 0.01%/min. (for min: 10 min and max: 180 min); drying: 0% RH for 120 min; RH (%) measurement step: 10%; RH (%) measurement step scope: 0-90-0%.

CNC(=O)c1cn(C[C@H](F)CCc2ccc(NC(=O)Cc3cc(OC4CC(F)(F)C4)cc(C)n3)nn2)nn1 [Example 1, (R)-1-(4-(6-(2-(4-(3,3-difluorocyclobutoxy)-6-methylpyridin-2-yl)acetamido)pyridazin-3-yl)-2-fluorobutyl)-N-methyl-1H-1,2,3-triazole-4-carboxamide]
EC50 [1]: < 100 nM

CNC(=O)c1cn(C[C@H](F)CCc2ccc(NC(=O)Cc3cc(OC4CC(F)(F)C4)cc(C)n3)nn2)nn1 [Polymorph D, (R)-1-(4-(6-(2-(4-(3,3-difluorocyclobutoxy)-6-methylpyridin-2-yl)acetamido)pyridazin-3-yl)-2-fluorobutyl)-N-methyl-1H-1,2,3-triazole-4-carboxamide]
hygroscopicity (DVS result) ([2]; 25° C., 0-80% RH): non-hygroscopic
Change of Mass, Desorption ([2]; Target % P/P0 0): 0.052%
Change of Mass, Sorption ([2]; Target % P/P0 0): 0.000%
Change of Mass, Desorption ([2]; Target % P/P0 10): 0.0276%
Change of Mass, Hysteresis ([2]; Target % P/P0 10): 0.0060%
Change of Mass, Sorption ([2]; Target % P/P0 10): 0.0216%
Change of Mass, Desorption ([2]; Target % P/P0 20): 0.0440%
Change of Mass, Hysteresis ([2]; Target % P/P0 20): 0.0104%
Change of Mass, Sorption ([2]; Target % P/P0 20): 0.0336%
Change of Mass, Desorption ([2]; Target % P/P0 30): 0.0587%
Change of Mass, Hysteresis ([2]; Target % P/P0 30): 0.0112%
Change of Mass, Sorption ([2]; Target % P/P0 30): 0.0474%
Change of Mass, Desorption ([2]; Target % P/P0 40): 0.0759%
Change of Mass, Hysteresis ([2]; Target % P/P0 40): 0.0181%
Change of Mass, Sorption ([2]; Target % P/P0 40): 0.0578%
Change of Mass, Desorption ([2]; Target % P/P0 50): 0.0906%
Change of Mass, Hysteresis ([2]; Target % P/P0 50): 0.0216%
Change of Mass, Sorption ([2]; Target % P/P0 50): 0.0690%
Change of Mass, Desorption ([2]; Target % P/P0 60): 0.1087%
Change of Mass, Hysteresis ([2]; Target % P/P0 60): 0.0259%
Change of Mass, Sorption ([2]; Target % P/P0 60): 0.0828%
Change of Mass, Desorption ([2]; Target % P/P0 70): 0.1294%
Change of Mass, Hysteresis ([2]; Target % P/P0 70): 0.0259%
Change of Mass, Sorption ([2]; Target % P/P0 70): 0.1035%
Change of Mass, Desorption ([2]; Target % P/P0 80): 0.1527%
Change of Mass, Hysteresis ([2]; Target % P/P0 80): 0.0190%
Change of Mass, Sorption ([2]; Target % P/P0 80): 0.1337%
Change of Mass, Desorption ([2]; Target % P/P0 90): 0.1768%
Change of Mass, Sorption ([2]; Target % P/P0 90): 0.1768%
form transformation after DVS (XRPD overlay) ([2]; after DVS 0-90-0% RH): no form transformation
water sorption ([2]; from 0-80% RH, 25° C.): 0.1%
